Measurements as given in ChEMBL document CHEMBL3045408, “Receptor and ligand-based 3D-QSAR study on a series of nonsteroidal anti-inflammatory drugs” (Med Chem Res, 2013).

Tests used:
[1] = target: T1, Prostaglandin G/H synthase 2 (Homo sapiens) (UniProt P35354); assay: Ratio of compound IC50 to celecoxib IC50 for Inhibition of COX2 (unknown origin)
T1 sequence (whole entry): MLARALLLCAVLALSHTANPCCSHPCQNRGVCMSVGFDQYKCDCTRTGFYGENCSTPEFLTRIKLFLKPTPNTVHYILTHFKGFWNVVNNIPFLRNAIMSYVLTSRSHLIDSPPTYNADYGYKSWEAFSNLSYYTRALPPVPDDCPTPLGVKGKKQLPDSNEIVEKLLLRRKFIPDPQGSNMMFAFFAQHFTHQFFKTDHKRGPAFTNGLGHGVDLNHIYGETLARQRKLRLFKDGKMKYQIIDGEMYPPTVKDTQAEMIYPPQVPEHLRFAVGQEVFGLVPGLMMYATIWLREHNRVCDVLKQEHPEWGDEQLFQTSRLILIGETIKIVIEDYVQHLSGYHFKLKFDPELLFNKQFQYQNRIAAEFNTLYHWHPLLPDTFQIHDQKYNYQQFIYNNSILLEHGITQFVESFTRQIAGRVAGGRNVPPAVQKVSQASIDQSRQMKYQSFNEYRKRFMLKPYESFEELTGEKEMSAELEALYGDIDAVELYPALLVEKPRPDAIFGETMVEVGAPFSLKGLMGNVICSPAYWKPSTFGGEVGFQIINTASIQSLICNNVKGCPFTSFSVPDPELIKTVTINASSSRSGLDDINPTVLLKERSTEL

[2] = target: T2, Prostaglandin G/H synthase 2 (Homo sapiens, UniProt P35354); assay: Inhibition of COX2 (unknown origin)
T2 sequence (P35354 whole entry): T1 sequence (whole entry)

Compound	-log(RatioIC50) [1]	IC50 [2]
CS(=O)(=O)Nc1ccc(/C(=C(\c2ccccc2)C2CCCCC2)c2ccccc2)cc1	-3.15	> 100000 nM
CS(=O)(=O)c1ccc(C=C(c2ccc(Cl)cc2)c2ccc(Cl)cc2)cc1	–	2000 nM
CCCCC(=C(c1ccccc1)c1ccccc1)c1ccc(S(C)(=O)=O)cc1	0.609	–
CCC(=C(c1ccccc1)c1ccccc1)c1ccc(S(C)(=O)=O)cc1	-1.34	1250 nM
CS(=O)(=O)c1ccc(/C=C(/C(=O)O)c2cccc(-c3ccc(F)cc3F)c2)cc1	-3.2	> 100000 nM
CC/C(=C(\c1ccccc1)c1ccc(NS(C)(=O)=O)cc1)c1ccccc1	-1.41	1800 nM
CCCCC(=C(c1ccccc1)c1cc(C(C)(C)C)c(C(C)=O)c(C(C)(C)C)c1)c1ccc(S(C)(=O)=O)cc1	-3.2	> 100000 nM
CCCC/C(=C(\c1ccccc1)c1ccc(NS(C)(=O)=O)cc1)c1ccccc1	-0.66	320 nM
CCCCC(=C(c1ccccc1)c1cc(C(C)(C)C)c(O)c(C(C)(C)C)c1)c1ccc(S(C)(=O)=O)cc1	-0.711	360 nM
CC(C)Oc1ccc(-c2cccc(/C(=C\c3ccc(S(C)(=O)=O)cc3)C(=O)O)c2)cc1	-3.2	> 100000 nM
